{"source": "patent US9486471B2", "about": "“Combination therapy for the treatment of cancer” (McMaster University, priority 2012, dated 2016)", "molecules": {"B1": {"name": "BMP4: differentiation control, 100 ng/ml of BMP4 (protein, UniProt P12644 293-408, looked up)", "Bone morphogenetic protein 4": "SPKHHSQRARKKNKNCRRHSLYVDFSDVGWNDWIVAPPGYQAFYCHGDCPFPLADHLNSTNHAIVQTLVNSVNSSIPKACCVPTELSAISMLYLDEYDKVVLKNYQEMVVEGCGCR"}}, "key": {"[1]": {"system": "AML cell lines HL-60, OCI-AML2 and OCI-AML3", "method": "All three lines are leukemic cell lines. HL-60 was derived from promyelocytic AML whereas MV 4-11 and OCI-AML3 are representative of AML. Each compound was incubated with the cells for 72 h. The control was DMSO (ie the vehicle used for the compound) for 72 h. Each condition had three replicates.\nA series of dopamine receptor agonists, D3-antagonists, DR1 & 5-antagonists and multi-receptor antagonists were tested for cytotoxicity against three AML cell lines HL-60, OCI-AML2 and OCI-AML3. Testing was performed as set out in Example 1."}, "[2]": {"system": "p53 and p21 in neoplastic hPSCs", "assay": "p53 and p21 accumulation in neoplastic hPSCs", "assay_type": "cell-based, human", "details": "24 h; 10 μM etoposide, 10 μM thioridazine, BMP4", "text": "Antibodies. Antibodies used for immunocytochemistry were the following: Oct3/4 (BD Trunsduction Laboratories, cat#611203), Sox2 (R&D, cat#AF2018). To detect human hematopoietic cells, Pacific Blue-, PE-, APC- or FITC labeled anti-human CD45 was used (BD Biosciences). FITC anti-CD33, PE anti-CD13, FITC anti-CD41a, FITC anti-HLA DR, and PE anti-CD19 antibodies were obtained from BD Pharmingen. PE anti-CD14, PE anti-CD15 and PE anti-GlyA were acquired from Immunotech Beckman Coulter. To determine pluripotency, PE anti-SSEA3 (BD Biosciences) and PE- or AlexaFluor488 anti-Oct4 (BD Biosciences). Rabbit anti-human dopamine receptor antibodies; DRD1 (Cat#324390), DRD2 (Cat#324393), DRD3 (Cat#324402), DRD4 (Cat#324405) and DRD5 (Cat#324408) were sourced from EMD Chemical. Anti-rabbit Alexa-Fluor-488 (Molecular Probes) was used as the secondary antibody. Primary anti-p53 (Cat#2527) and anti-p21 (Cat#2947) rabbit IgG sourced from Cell Signaling Technology were used to stain fixed and permeabilized cells. Anti-rabbit alexa-Fluor-546 (Molecular Probes) was used as the secondary antibody."}, "[3]": {"system": "v1H9-Oct4-GFP neoplastic hPSC", "assay": "Chemical screening of neoplastic hPSC reporter line (GFP / Hoechst, loss of pluripotency)", "assay_type": "cell-based, human", "details": "for hit in extended screen (loss of pluripotency): 2446 compound screen, reduced mean GFP intensity and cell count; for activity at 10 µM: read-out: Hoechst % residual activity (% RA)", "method": "In Vitro Culture Platform for Normal and Neoplastic hPSCs. Chemical screens involved v1H9-Oct4-GFP cells seeded at 5,000 cells per well in mouse embryonic fibroblast conditioned media (MEFCM) supplemented with 8 ng/ml bFGF. 24 hours later the media was exchanged for MEFCM with compounds at 10 μM and 0.1% DMSO, 0.1% DMSO (−BMP4) or 100 ng/ml of BMP4 and 0.1% DMSO (+BMP4) for 48 hours before being exchanged with fresh media with compound for a further 24 h (total compound treatment time 72 h) prior to being fixed and prepared for automated imaging and plate reader analysis. Confluent H9 & fibroblast-derived iPSC were seeded at 10,000 cells per well in MEFCM supplemented with 8 ng/ml bFGF. 24 hours later the cells were treated with compounds at 10 μM and 0.1% DMSO, 0.1% DMSO (−BMP4) or 100 ng/ml of BMP4 and 0.1% DMSO (+BMP4). Fresh MEFCM supplemented with compounds was exchanged daily for 5 days. On day 5, hPSC's were fixed and prepared for automated imaging and plate reader analysis. See supplementary experimental procedures for further details.\nImaging Neoplastic hPSC. Cells were fixed in 2% paraformaldehyde and stained with 10 μg/mL Hoechst 33342 (Invitrogen) with a Combi Multidrop Dispenser (Thermo). For experiments that involved Oct4 immunocytochemistry, a monoclonal antibody for Oct4 (BD) was used along with an Alexa-Fluor-647 secondary (Invitrogen). Immunocytochemical staining was performed by a Janus automated liquid handler (Perkin Elmer). Images were acquired at 10× N.A with an Arrayscan HCS VTI Reader (Cellomics) by means of epi-fluorescence illumination and standard filter sets.\nImage Analysis. Image analysis was performed using custom scripts in Acapella software (Perkin Elmer). Nuclear objects were segmented from the Hoechst signal. For neoplastic cell lines, object intensity analysis was performed on GFP positive cells only. For normal cell lines, the fraction of Alexa-Fluor-647-positive cells was quantified. Images and well-level data were stored and analysed in a Columbus Database (Perkin Elmer) and further data analysis, compounds registration and hit identification in ActivityBase (IDBS).\nThese Collections have been previously scrutinized in numerous other mammalian cell lines (Diallo et al., 2010; Shoemaker, 2006)."}, "[4]": {"system": "hematopoietic stem and progenitor cells (HSPC, CB lin-)", "assay": "Methylcellulose colony-forming assay, HSPC (CB lin-)", "method": "(§1) AML/HPSC Cell Culture. AML cell lines, namely, OCI-AML2 (M4), OCI-AML3 (M4), HL-60 (M2) and MV-4-11(M5) were cultured in RPMI (Gibco) supplemented with 5% heated-inactivated FBS (HyClone). For DR agonist studies with R(+)-7-Hydroxy-DPAT hydrobromide (Sigma), serum-free conditions were employed instead due to the prevalence of dopamine in FBS (Little et al., 2002). AML patient blasts were cultured in IMDM supplemented with 5% heated inactivated FBS (HyClone), 5 ng/mL IL3 (R&D systems), 5×10^−5 M β-mercaptoethanol (Sigma) and BIT (StemCell Technologies). HSC media contained IMDM supplemented with 1% BSA (Sigma), 100 ng/mL SCF (R&D systems), 100 ng/mL Flt-3L (R&D systems) and 20 ng/mL TPO (R&D systems). Patient HSPC and AML samples were treated with compound or DMSO-vehicle (0.1%) for 24 h prior to CFU plating or xenotransplantation studies.\n(§2) Methylcellulose Colony-Forming Assay. AML patient or CB lin− cells were cultured 24 hours in the presence of compound or DMSO-vehicle (0.1%) control. AML cells were plated at 50 000 cells/mL in Methocult GF H4434 (Stem Cell Technologies). CB lin− cells were plated at 1000 cells/mL in Methocult GF H4434 (Stem Cell Technologies). Colonies were scored after 14 days of culture using standard morphological criteria."}, "AML patient blast cells": {"system": "AML patient blast cells", "assay": "Methylcellulose colony-forming assay, AML patient blast-CFU", "assay_type": "cell-based, human", "method": "as §1, §2"}, "[5]": {"system": "AML-OCI2 and AML-OCI3 cell lines", "assay": "Volumetric cell counting of AML cell lines treated with DR antagonists and agonists", "assay_type": "cell-based, human", "details": "72 h, serum-free conditions", "quoted_text": "Volumetric Cell Counting. The number of AML-OCI2 and AML-OCI3 cells present after 72 h treatment with DR antagonists (FIG. 16b) and agonist (FIG. 16c-d) were counted by measuring the number of events within a fixed volume following the grating strategy defined by forward scatter and side scatter clustering, 7AAD− and Hoechst+.\nDue to the bioavailability of dopamine in fetal bovine serum (FBS) (Little et al., 2002), serum-free conditions were employed to assess the role of DRs in AML."}, "[6]": {"system": "neoplastic hPSCs (v1H9-Oct4-GFP)", "assay": "Flow cytometry of Oct4 in neoplastic hPSCs", "assay_type": "cell-based, human"}, "[7]": {"system": "AML LSCs (CD45+CD33+ blast engraftment)", "assay": "Xenotransplantation of compound-treated AML cells into NSG mice", "assay_type": "in vivo", "details": "10 μM, 24 h ex vivo treatment", "method": "Xenotransplantation Assays. NOD.Cg-Prkdc^scid II2rg^tm1Wjl/SzJ adult mice (NSG) were sub-lethally irradiated with 315 rads 24 hours prior transplantation. 0.8-1.0×10^7 AML MNCs or 1.5-1.8×10^5 CB lin-hematopoietic cells treated with compound or DMSO-vehicle for 24 h were injected via tail vein (IV). After 6-10 weeks, animals were culled, and the BM and spleen were analyzed for the presence of human cells by flow cytometry (LSRII, BD) and data was analyzed using FlowJo software (Tree Star Inc). For secondary HSPC transplants, equal number of engrafted human cells from CB lin− transplants were injected IV in adult irradiated NSG mice as described for primary transplants.\nTo delineate whether the inhibition of AML-blasts detected in vitro was due to the compounds affecting the neoplastic stem cell compartment, xenotransplantation studies (Dick, 2008) that functionally define LSCs and hematopoietic stem cells (HSCs) were conducted (FIG. 12)."}, "[8]": {"system": "HL-60, MV4-11 and OCI-AML3 leukemic cell lines", "assay": "Normalized cell number of leukemic cell lines after 72 h incubation (Examples 1, 3)", "assay_type": "cell-based, human", "details": "10 μM", "method": "All three lines are leukemic cell lines. […] Each condition had three replicates.\nThe dopamine receptor antagonist and phenothiazine-related compound chlorpromazine was also investigated for effects on the AML cell lines HL-60, MV4-11 and OCI-AML3. Testing was performed as set out in Example 1."}, "[9]": {"details": "Homo sapiens, 10 μM, 590 compound screen"}}, "note": "Structures can show the parent of a compound that is named as a salt. Where two headings read alike, the source gives them in different places.", "data": [{"molecule": "CN1CCN(C2=Nc3cc(Cl)ccc3Nc3ccccc32)CC1", "note": "[clozapine, Clozapine]", "values": [{"measurement": "cytotoxicity of AML cell lines", "setting": "[1]", "result": "significant effect"}]}, {"molecule": "COc1cc([C@@H]2c3cc4c(cc3[C@@H](O[C@@H]3O[C@@H]5CO[C@@H](C)O[C@H]5[C@H](O)[C@H]3O)[C@H]3COC(=O)[C@H]23)OCO4)cc(OC)c1O", "note": "[etoposide]", "values": [{"measurement": "accumulation of cell stress marker p53", "setting": "[2]", "result": "high levels"}, {"measurement": "accumulation of p21", "setting": "[2]", "result": "high levels"}]}, {"molecule": "OCCN1CCN(CCCN2c3ccccc3Sc3ccc(C(F)(F)F)cc32)CC1", "note": "[fluphenazine]", "values": [{"measurement": "hit in extended screen (loss of pluripotency)", "setting": "[3]", "result": "hits"}]}, {"molecule": "CC[C@@H](C(=O)[C@@H](C)[C@@H](O)[C@H](C)[C@@H]1O[C@@H]([C@@H](CC)C(=O)O)CC[C@@H]1C)[C@H]1O[C@]2(C=C[C@@H](O)[C@]3(CC[C@@](C)([C@H]4CC[C@](O)(CC)[C@H](C)O4)O3)O2)[C@H](C)C[C@@H]1C", "note": "[salinomycin]", "values": [{"measurement": "HSPC CFU potential", "setting": "[4]", "result": "reduced"}, {"measurement": "AML-blast CFU potential", "setting": "AML patient blast cells; 1 μM", "result": "reduced"}, {"measurement": "AML-blast CFU potential", "setting": "AML patient blast cells; 10 μM", "result": "reduced"}]}, {"molecule": "Nc1ccn([C@@H]2O[C@H](CO)[C@@H](O)[C@@H]2O)c(=O)n1", "note": "[AraC, Arabinofuranosyl Cytidine]", "values": [{"measurement": "effective concentration (ECArac)", "setting": "AML patient blast cells; concentration that reduced AML-blast-CFU while retaining HSPC function, single drug", "result": 100, "unit": "nM"}]}, {"molecule": "Br.CCCN(CCC)[C@@H]1CCc2ccc(O)cc2C1", "note": "[7OH-DPAT, R(+)-7-Hydroxy-DPAT hydrobromide]", "values": [{"measurement": "number of AML cells", "setting": "[5]", "result": "increased the number of AML cells"}]}, {"molecule": "Cn1cnc([N+](=O)[O-])c1Sc1ncnc2nc[nH]c12", "note": "[azathioprine]", "values": [{"measurement": "activity at 10 µM", "setting": "[3]; [9]", "result": "> 30", "unit": "%"}]}, {"molecule": "Oc1cc2c(cc1O)[C@@H](c1ccccc1)CNCC2", "note": "[SKF38393, (R)-(+)-SKF-38393 hydrochloride]", "values": [{"measurement": "number of AML cells", "setting": "[5]", "result": "significant reduction"}]}, {"molecule": "CN1CCN(CCCN2c3ccccc3Sc3ccc(Cl)cc32)CC1", "note": "[prochlorperazine]", "values": [{"measurement": "hit in extended screen (loss of pluripotency)", "setting": "[3]", "result": "hits"}]}, {"molecule": "OC(c1cc(C(F)(F)F)nc2c(C(F)(F)F)cccc12)C1CCCCN1", "note": "(stereo not shown) [mefloquine]", "values": [{"measurement": "activity at 10 µM", "setting": "[3]; [9]", "result": "> 30", "unit": "%"}, {"measurement": "EC50", "setting": "[3]; Homo sapiens, dose response, v1H9-Oct4-GFP, read-out: EC50 (reduction in GFP intensity)", "result": "< 10", "unit": "µM"}, {"measurement": "cell number", "setting": "[6]", "result": "reductions"}, {"measurement": "levels of Oct4", "setting": "[6]", "result": "reductions"}, {"measurement": "AML-blast CFU formation", "setting": "AML patient blast cells; dose not stated in the sentence (0.1, 1, 10 μM tested)", "result": "reduced"}, {"measurement": "leukemic disease-initiating AML LSC capacity", "setting": "[7]", "result": "ineffective"}]}, {"molecule": "CN(C)CCCN1c2ccccc2Sc2ccc(Cl)cc21", "note": "[chlorpromazine, Chlorpromazine hydrochloride]", "values": [{"measurement": "normalized cell number / toxicity", "setting": "[8]", "result": "toxic"}, {"measurement": "cytotoxicity of AML cell lines", "setting": "[1]", "result": "significant effect"}, {"measurement": "cell count", "setting": "[1]; 72 h, relative to control", "result": "eradicate the AML cell lines"}, {"measurement": "number of AML cells", "setting": "[5]", "result": "reduced the number of AML cells"}]}, {"molecule": "CNC1CC(c2ccc(Cl)c(Cl)c2)c2ccccc21", "note": "(stereo not shown) [indatraline]", "values": [{"measurement": "activity at 10 µM", "setting": "[3]; Homo sapiens", "result": "> 30", "unit": "%"}]}, {"molecule": "B1", "values": [{"measurement": "accumulation of cell stress marker p53", "setting": "[2]", "result": "no accumulation"}, {"measurement": "accumulation of p21", "setting": "[2]", "result": "no accumulation"}]}]}
